pIC50: −log10 of the molar value.
Target: T1, Recombinant human renin (Homo sapiens, UniProt P00797)
T1 construct: isolate the active form (residues 67-406); made in house; host or cells: FreeStyle 293-F cells, transient expression of pcDNA3.1(+)/hREN
T1 sequence (P00797 67-406): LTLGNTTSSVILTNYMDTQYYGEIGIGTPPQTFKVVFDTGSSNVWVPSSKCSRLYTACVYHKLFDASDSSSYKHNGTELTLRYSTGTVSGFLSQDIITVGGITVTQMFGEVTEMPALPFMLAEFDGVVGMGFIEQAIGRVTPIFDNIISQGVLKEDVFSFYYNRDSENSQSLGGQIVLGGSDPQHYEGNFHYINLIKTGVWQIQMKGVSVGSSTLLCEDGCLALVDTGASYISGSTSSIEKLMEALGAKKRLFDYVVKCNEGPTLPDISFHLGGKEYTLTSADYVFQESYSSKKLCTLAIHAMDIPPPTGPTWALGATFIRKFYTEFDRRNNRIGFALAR
Experiment: In vitro enzymatic activity assay of renin inhibitors (fluorescence, QXL520/HiLyteFluo488 peptide substrate)
Format: biochemical
Conditions: recombinant human renin 3 nM, 1 μM substrate, pre-incubated 10 minutes at 37° C., incubation one hour, pH 7.4, 5% DMSO; read-out: IC50 of Exemplified Compounds Against Renin

pIC50 | Structure (SMILES)
6.00 to 6.30 | O=C(NCCCn1c(C(=O)N2CCNCC2)c(-c2ccccc2)n(-c2cccc(N3CCOCC3)c2)c1=O)Nc1ccccc1 [Example 200, 1-(3-(3-(3-Morpholinophenyl)-2-oxo-4-phenyl-5-(piperazine-1-carbonyl)-2,3-dihydro-1H-imidazol-1-yl)propyl)-3-phenylurea]
6.30 to 7.00 | COc1ccccc1-n1c(-c2ccccc2)c(C(=O)N2CCNCC2)n(CCCNS(=O)(=O)c2ccccc2)c1=O [Example 161, N-(3-(3-(2-Methoxyphenyl)-2-oxo-4-phenyl-5-(piperazine-1-carbonyl)-2,3-dihydro-1H-imidazol-1-yl)propyl)benzenesulfonamide]
6.00 to 6.30 | O=C(c1c(-c2ccccc2)n(-c2cccc(N3CCOCC3)c2)c(=O)n1CCCNS(=O)(=O)c1cccc(Cl)c1)N1CCNCC1 [Example 195, 3-Chloro-N-(3-(3-(3-morpholinophenyl)-2-oxo-4-phenyl-5-(piperazine-1-carbonyl)-2,3-dihydro-1H-imidazol-1-yl)propyl)benzenesulfonamide]
< 6.00 | Cc1ccccc1-n1c(-c2ccccc2)c(C(=O)N2CCNCC2)n(CCCNC(=O)c2ccccc2)c1=O [Example 156, N-(3-(2-oxo-4-Phenyl-5-(piperazine-1-carbonyl)-3-o-tolyl-2,3-dihydro-1H-imidazol-1-yl)propyl)benzamide]
< 6.00 | Cc1ccccc1-n1c(-c2ccccc2)c(C(=O)N2CCNCC2)n(CCNC(=O)C(C)C)c1=O [Example 236, N-(2-(2-oxo-4-phenyl-5-(piperazine-1-carbonyl)-3-o-tolyl-2,3-dihydro-1H-imidazol-1-yl)ethyl)isobutyramide]
6.00 to 6.30 | COCCCOc1cccc(-n2c(-c3ccccc3)c(C(=O)N3CCNCC3)n(CCCNC(=O)c3ccccc3)c2=O)c1 [Example 179, N-(3-(3-(3-(3-Methoxypropoxy)phenyl)-2-oxo-4-phenyl-5-(piperazine-1-carbonyl)-2,3-dihydro-1H-imidazol-1-yl)propyl)benzamide]
< 6.00 | Cc1ccccc1-n1c(-c2ccccc2)c(C(=O)N2CCNCC2)n(CCNC(=O)NC(C)C)c1=O [Example 216, 1-Isopropyl-3-(2-(2-oxo-4-phenyl-5-(piperazine-1-carbonyl)-3-o-tolyl-2,3-dihydro-1H-imidazol-1-yl)ethyl)urea]
< 6.00 | Cc1ccccc1-n1c(-c2ccccc2)c(C(=O)N2CCNCC2)n(CCCNC(=O)OCc2ccccc2)c1=O [Example 255, Benzyl 3-(2-oxo-4-phenyl-5-(piperazine-1-carbonyl)-3-o-tolyl-2,3-dihydro-1H-imidazol-1-yl)propylcarbamate]
6.00 to 6.30 | O=C(c1c(-c2ccccc2)n(-c2cccc(N3CCOCC3)c2)c(=O)n1Cc1ccc(F)c(F)c1)N1CCNCC1 [Example 190, 1-(3,4-Difluorobenzyl)-3-(3-morpholinophenyl)-4-phenyl-5-(piperazine-1-carbonyl)-1H-imidazol-2(3H)-one]
6.00 to 6.30 | COCCCOc1cccc(-n2c(-c3ccccc3)c(C(=O)N3CCNCC3)n(Cc3ccc(F)c(F)c3)c2=O)c1 [Example 164, 1-(3,4-Difluorobenzyl)-3-(3-(3-methoxypropoxy)phenyl)-4-phenyl-5-(piperazine-1-carbonyl)-1H-imidazol-2(3H)-one]
< 6.00 | CC(C)CC(=O)NCCn1c(C(=O)N2CCNCC2)c(-c2ccccc2)n(-c2cccc(N3CCOCC3)c2)c1=O [Example 178, 3-Methyl-N-(2-(3-(3-morpholinophenyl)-2-oxo-4-phenyl-5-(piperazine-1-carbonyl)-2,3-dihydro-1H-imidazol-1-yl)ethyl)butanamide]
6.30 to 7.00 | COc1ccccc1-n1c(-c2ccccc2)c(C(=O)N2CCNCC2)n(CCNC(=O)c2ccccc2)c1=O [Example 168, N-(2-(3-(2-Methoxyphenyl)-2-oxo-4-phenyl-5-(piperazine-1-carbonyl)-2,3-dihydro-1H-imidazol-1-yl)ethyl)benzamide]
< 6.00 | O=C(c1c(-c2ccccc2)n(-c2cccc(N3CCOCC3)c2)c(=O)n1CCCNS(=O)(=O)c1ccccc1F)N1CCNCC1 [Example 193, 2-Fluoro-N-(3-(3-(3-morpholinophenyl)-2-oxo-4-phenyl-5-(piperazine-1-carbonyl)-2,3-dihydro-1H-imidazol-1-yl)propyl)benzenesulfonamide]
< 6.00 | O=C(c1c(-c2ccccc2)n(-c2cccc(N3CCOCC3)c2)c(=O)n1CC1CCCCC1)N1CCNCC1 [Example 189, 1-(Cyclohexylmethyl)-3-(3-morpholinophenyl)-4-phenyl-5-(piperazine-1-carbonyl)-1H-imidazol-2(3H)-one]

The remaining lines, values behind:

Structure (SMILES) | pIC50
O=C(O)COc1cccc(Cn2c(C(=O)N3CCNCC3)c(-c3ccccc3)n(-c3cccc(N4CCOCC4)c3)c2=O)c1 [Example 59, 2-(3-((3-(3-Morpholinophenyl)-2-oxo-4-phenyl-5-(piperazine-1-carbonyl)-2,3-dihydro-1H-imidazol-1-yl)methyl)phenoxy)acetic acid] | < 6.00
O=C(c1c(-c2ccccc2)n(-c2ccccc2)c(=O)n1Cc1cccc2cccnc12)N1CCNCC1 [Example 82, 1,5-Diphenyl-4-(piperazine-1-carbonyl)-3-(quinolin-8-ylmethyl)-1H-imidazol-2(3H)-one] | < 6.00
CN1CCOc2ccc(-n3c(-c4ccccc4)c(C(=O)N4CCNC[C@H]4Cc4ccccc4)[nH]c3=O)cc21 [Example 135, (R)-4-(2-Benzylpiperazine-1-carbonyl)-1-(4-methyl-3,4-dihydro-2H-benzo[b][1,4]oxazin-6-yl)-5-phenyl-1H-imidazol-2(3H)-one] | > 7.00
CS(=O)(=O)Nc1ccccc1-n1c(-c2ccccc2)c(C(=O)N2CCNC[C@H]2Cc2ccccc2)[nH]c1=O [Example 118, (R)—N-(2-(4-(2-Benzylpiperazine-1-carbonyl)-2-oxo-5-phenyl-2,3-dihydro-1H-imidazol-1-yl)phenyl)methanesulfonamide] | > 7.00
COc1ccc(-c2cc(Cn3c(C(=O)N4CCNCC4)c(-c4ccccc4)n(C4CCCCC4)c3=O)ccn2)cn1 [Example 17F, 1-Cyclohexyl-3-((6′-methoxy-2,3′-bipyridin-4-yl)methyl)-5-phenyl-4-(piperazine-1-carbonyl)-1H-imidazol-2(3H)-one] | 6.30 to 7.00
O=C(c1ccccc1)N1CCCC(n2c(-c3ccccc3)c(C(=O)N3CCNCC3)n(Cc3ccccc3)c2=O)C1 (stereo not shown) [Example 95, 1-(1-Benzoylpiperidin-3-yl)-3-benzyl-5-phenyl-4-(piperazine-1-carbonyl)-1H-imidazol-2(3H)-one] | < 6.00
O=C(c1[nH]c(=O)n(-c2ccccc2)c1-c1ccccc1Cl)N1CCNCC1 [Example 26, 5-(2-Chlorophenyl)-1-phenyl-4-(piperazine-1-carbonyl)-1H-imidazol-2(3H)-one] | < 6.00
CCOC(=O)N1CCc2ccc(-n3c(-c4ccccc4)c(C(=O)N4CCNC[C@H]4Cc4ccccc4)[nH]c3=O)cc21 [Example 139, (R)-Ethyl 6-(4-(2-benzylpiperazine-1-carbonyl)-2-oxo-5-phenyl-2,3-dihydro-1H-imidazol-1-yl)indoline-1-carboxylate] | > 7.00
O=C(c1c(-c2ccccc2)n(C2CCCCC2)c(=O)n1Cc1cccc(-n2cccc2)c1)N1CCNCC1 [Example 72, 1-(3-(1H-Pyrrol-1-yl)benzyl)-3-cyclohexyl-4-phenyl-5-(piperazine-1-carbonyl)-1H-imidazol-2(3H)-one] | 6.30 to 7.00
COc1ccc(-c2cc(Cn3c(C(=O)N4CCNCC4)c(-c4ccccc4)n(C4CCCCC4)c3=O)cc(N(C)C)n2)cn1 [Example 17H, 1-cyclohexyl-3-((6-(dimethylamino)-6′-methoxy-2,3′-bipyridin-4-yl)methyl)-5-phenyl-4-(piperazine-1-carbonyl)-1H-imidazol-2(3H)-one] | 6.30 to 7.00
CC(C)NC(=O)NCCCn1c(C(=O)N2CCNCC2)c(-c2ccccc2)n(-c2cccc(N3CCOCC3)c2)c1=O [Example 61, 1-Isopropyl-3-(3-(3-(3-morpholinophenyl)-2-oxo-4-phenyl-5-(piperazine-1-carbonyl)-2,3-dihydro-1H-imidazol-1-yl)propyl)urea] | < 6.00
O=C(c1[nH]c(=O)n(-c2ccccn2)c1-c1ccccc1)N1CCNCC1 [Example 19, 5-Phenyl-4-(piperazine-1-carbonyl)-1-(pyridin-2-yl)-1H-imidazol-2(3H)-one] | < 6.00
O=C(c1c(-c2ccccc2)n(-c2ccccn2)c(=O)n1Cc1ccccc1)N1CCNCC1 [Example 46, 1-Benzyl-4-phenyl-5-(piperazine-1-carbonyl)-3-(pyridin-2-yl)-1H-imidazol-2(3H)-one] | < 6.00
C[C@@H]1CN(C(=O)c2[nH]c(=O)n(C3CCCCC3)c2-c2ccccc2)CCN1 [Example 37, (R)-1-Cyclohexyl-4-(3-methylpiperazine-1-carbonyl)-5-phenyl-1H-imidazol-2(3H)-one] | < 6.00
COc1cc(Cn2c(C(=O)N3CCNCC3)c(-c3ccccc3)n(-c3ccccc3)c2=O)cc(OC)c1 [Example 86, 1-(3,5-Dimethoxybenzyl)-3,4-diphenyl-5-(piperazine-1-carbonyl)-1H-imidazol-2(3H)-one] | 6.30 to 7.00
NC(=O)Cn1c(C(=O)N2CCNCC2)c(-c2ccccc2)n(C2CCCCC2)c1=O [Example 63, 2-(3-Cyclohexyl-2-oxo-4-phenyl-5-(piperazine-1-carbonyl)-2,3-dihydro-1H-imidazol-1-yl)acetamide] | < 6.00
O=C(c1c(-c2ccccc2)n(-c2ccccc2)c(=O)n1Cc1nnc(C2CC2)s1)N1CCNCC1 [Example 48, 1-((5-Cyclopropyl-1,3,4-thiadiazol-2-yl)methyl)-3,4-diphenyl-5-(piperazine-1-carbonyl)-1H-imidazol-2(3H)-one] | < 6.00
